Data as given in patent US7098336B2, “FXR NR1H4 nuclear receptor binding compounds” (Phenex Pharmaceuticals AG, priority 2001, dated 2006).
pEC50: −log10 of the molar value. Where two headings read alike, the source gives them in different places.

Assays:
human FXR alpha (NR1H4) [1] = biological target: T1, human FXR alpha (NR1H4) (Homo sapiens, UniProt Q96RI1); assay: In vitro LANCE TR-FRET screening for FXR binding to coactivator TIF2; assay type: biochemical; parameters: EC50 AVG; other: relative to CDCA control agonist; fused on or other part: GST at the N-terminus (pDest15); conditions: for Emax: read-out: EFFIC AVG (average efficacy, % activity relative to CDCA control agonist)
T1 sequence (Q96RI1 1-472 isoform Q96RI1-2): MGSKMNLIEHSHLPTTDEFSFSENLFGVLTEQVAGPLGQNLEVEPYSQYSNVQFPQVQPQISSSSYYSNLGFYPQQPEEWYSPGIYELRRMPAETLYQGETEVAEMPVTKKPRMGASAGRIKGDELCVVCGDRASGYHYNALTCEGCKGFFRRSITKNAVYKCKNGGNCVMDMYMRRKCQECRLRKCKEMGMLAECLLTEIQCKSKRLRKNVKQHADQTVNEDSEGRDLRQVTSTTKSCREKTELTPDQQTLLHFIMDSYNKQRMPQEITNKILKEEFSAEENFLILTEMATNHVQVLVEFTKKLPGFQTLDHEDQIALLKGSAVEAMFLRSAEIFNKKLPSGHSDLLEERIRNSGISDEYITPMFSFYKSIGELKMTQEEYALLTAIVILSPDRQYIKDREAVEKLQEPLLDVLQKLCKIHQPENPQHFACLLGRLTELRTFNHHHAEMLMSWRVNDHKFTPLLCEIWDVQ
From the text: For screening purposes a fragment of the open reading frame of human FXR alpha (NR1H4-(Acc. No: AF384555)) encoding aminoacids 187–472 was amplified by standard RT PCR procedures (see figures; SEQ ID NO. 1 and 2). Starting material was total RNA derived from human liver. The resulting cDNA obtained after reverse transcription was subsequently cloned using the Gateway™ recombination technology (Invitrogen, USA) into the expression plasmid pDest15 (Invitrogen, USA). This construct was used to express a recombinant GST-FXR fusion protein in E. coli (BL21 strain). A pDEST 17 derivative clone harboring an additional sequence encoding amino acids 548–878 of human TIF2 (Acc. No: XM—011633 RefSeq) was constructed using Gateway™ recombination technology (Invitrogen, USA) in order to obtain a construct which was used to express recombinant His-tagged TIF2 fragment could be expressed in E. coli. For E. coli expression of both constructs, plasmid DNA was transformed into chemically competent E. coli BL21 (Invitrogen, USA) and cells were grown to an OD600 of 0.4–0.7 before expression was induced by addition of 0.5 mM IPTG according instructions of the manufacturer (Invitrogen). After induction for 8 hours at 30° C. cells were harvested by centrifugation for 10 minutes at 5000×g. Fusion proteins were affinity purified using Glutathion sepharose (Pharmacia) or Ni-NTA Agarose (QIAGEN) according to the instructions of the respective manufacturer. Recombinant proteins were dialyzed against 20 mM Tris/HCL pH 7.9; 60 mM KCl; 5 mM MgCl2; 1 mM DTT, 0.2 mM PMSF; 10% glycerol. The TIF2 fragment was subsequently biotinylated by addition of 40–120 μl of a Biotinamidocaproate N-Hydroxysuccinimide-ester (Sigma) solution (20 mg/ml in DMSO). Overhead rotating samples were incubated for 2 hours at room temperature. Unincorporated label was then separated using G25 Gel filtration chromatography (Pharmacia Biotech, Sweden). Protein containing fractions from the column were pooled and tested for activity in the assay as described below.
(§1) For screening of compound libraries as provided for by the methods shown below in the examples for substances which influence the FXR/Tif 2 interaction, the Perkin Elmer LANCE technology was applied. This method relies on the binding dependent energy transfer from a donor to an acceptor fluorophore attached to the binding partners of interest. For ease of handling and reduction of background from compound fluorescence LANCE technology makes use of generic fluorophore labels and time resoved detection (for detailed description see Hemmilä I, Blomberg K and Hurskainen P, Time-resolved resonance energy transfer (TR-FRET) principle in LANCE, Abstract of Papers Presented at the 3 rd Annual Conference of the Society for Biomolecular Screening, September, California (1997).
For screening, 20–200 ng of biotinylated Tif 2 fragment and 10–200 ng of GST-FXR fragment were combined with 0.5–2 nM LANCE Eu-(W1024) labelled anti-GST antibody (Perkin Elmer) and 0.5–2 μg of Highly fluorescent APC-labelled streptavidin (Perkin Elmer) in the presence of 50 μM of individual compounds to be screened in a total volume of 25 μl of 20 mM Tris/HCl pH 7.9; 60 mM KCl; 5 mM MgCl2; 160 ng/μl BSA. DMSO content of the samples was kept below 4%. Samples were incubated for a minimum of 60 minutes in the dark at room temperature in FIA-Plates black 384 well med. binding (Greiner).
(§2) The LANCE signal was detected by a Perkin Elmer VICTOR2V™ Multilabel Counter applying the detection parameters listed in Table 1 below. The results were visualized by plotting the ratio between the emitted light at 665 nm and at 615 nm. For every batch of recombinant proteins amount of proteins and labeling reagents giving the most sensitive detection of hits was determined individually by analysis of dose response curves for chenodeoxycholic acid.

full length human FXR = biological target: T2, full length human FXR (Homo sapiens, UniProt Q96RI1); assay: Cellular gene reporter assay in stable HEK293-FXR reporter cell line (luciferase); assay type: cell-based; conditions: HEK293-FXR reporter cells, 16 hours incubation, FIG. 3
T2 construct: expressed in transfected cells; host or cells: HEK293, stably transfected with pTRexDest30-hFXR, pTRexDest30-hRXR and pGL2promoter-FXRRE
T2 sequence (Q96RI1 1-472 isoform Q96RI1-2): T1 sequence (Q96RI1 1-472 isoform Q96RI1-2)
T2 sequence (P19793 1-462 partner): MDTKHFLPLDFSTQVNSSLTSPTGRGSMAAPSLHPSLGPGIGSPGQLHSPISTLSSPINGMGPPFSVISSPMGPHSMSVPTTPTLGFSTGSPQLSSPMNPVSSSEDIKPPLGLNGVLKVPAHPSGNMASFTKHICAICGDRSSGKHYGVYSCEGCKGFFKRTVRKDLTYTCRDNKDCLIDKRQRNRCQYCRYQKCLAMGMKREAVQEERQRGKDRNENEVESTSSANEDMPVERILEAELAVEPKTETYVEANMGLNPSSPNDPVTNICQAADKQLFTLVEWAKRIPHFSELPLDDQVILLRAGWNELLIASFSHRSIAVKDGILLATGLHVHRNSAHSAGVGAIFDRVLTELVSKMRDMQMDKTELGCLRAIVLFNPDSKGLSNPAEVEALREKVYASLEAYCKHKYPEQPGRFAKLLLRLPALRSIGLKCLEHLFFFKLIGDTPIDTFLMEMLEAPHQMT
From the text: This example illustrates that a compound according to the invention can mediate transactivation of FXR mediated transcription in a HEK293 reporter cell line. Experiments shown were done with MOLSTRUCTURE LN 6691 (see structural formula below).
Stable HEK293-FXR reporter cell lines were generated by stably transfecting with the pTRexDest30 (Invitrogen) derivatives pTRexDest30-hFXR, pTRexDest30-hRXR and the pGL2promoter (Promega) derivative pGL2promoter-FXRRE. The full length human FXR (accession U68233) and the full length human RXRα (accession P19793) were cloned into the pTRexDest30 applying the manufacturer protocols for the Gateway™ system (Invitrogen).
The FXR response elements were (upper case and underlined) 5′-cccaGGGTGAaTAACCTcggggctctgtccctccaatcccaGGGTGAaTAACCTcggg 3′ (SEQ ID NO. 5) was created from the human IBAB-P promoter (Grober et al 1999, JBC 274, pp. 29749–29754) and integrated into the reporter plasmid pGL2promoter (Promega) according to standard methods known to those skilled in the art. […] Luciferase reporter activity were determined in triplicates from extracts of cells after incubating cells in culture medium (DMEM [Gibco-BRL]+10% FCS [PAA laboratories]) for 16 hours (5% CO2, 37° C.) containing 0.5% DMSO (control) or 0.5% DMSO with increasing concentrations of LN6691 (FIG. 3).

human FXR alpha (NR1H4) [2] = biological target: T1, human FXR alpha (NR1H4); assay: In vitro LANCE TR-FRET screening for FXR binding to coactivator TIF2; assay type: biochemical
From the text: For screening purposes a fragment of the open reading frame of human FXR alpha (NR1H4-(Acc. No: AF384555)) encoding aminoacids 187–472 was amplified by standard RT PCR procedures (see figures; SEQ ID NO. 1 and 2). Starting material was total RNA derived from human liver. The resulting cDNA obtained after reverse transcription was subsequently cloned using the Gateway™ recombination technology (Invitrogen, USA) into the expression plasmid pDest15 (Invitrogen, USA). This construct was used to express a recombinant GST-FXR fusion protein in E. coli (BL21 strain). A pDEST 17 derivative clone harboring an additional sequence encoding amino acids 548–878 of human TIF2 (Acc. No: XM—011633 RefSeq) was constructed using Gateway™ recombination technology (Invitrogen, USA) in order to obtain a construct which was used to express recombinant His-tagged TIF2 fragment could be expressed in E. coli. […]
as §1, with “This method relies on the binding dependent energy transfer from a donor to an acceptor fluorophore attached to the binding partners of interest.” left out, “(1997). […]” for “(1997).”
as §2, with “The results were visualized by plotting the ratio between the emitted light at 665 nm and at 615 nm.” left out

[3] = established according to Example 1 (FRET), unit inferred, b76 prints 0.16 μM for the same value, read-out: EC50 AVG

Row | SMILES | pEC50 (human FXR alpha (NR1H4) [1]; [3]) | Emax (human FXR alpha (NR1H4) [1]) [%] | active as agonists of the NR1H4 human nuclear receptor (human FXR alpha (NR1H4) [2]) | other results
1 | COc1ccccc1-c1cc(-c2cc(C)ccc2O)nc(NCC2CCC(C(=O)O)CC2)n1 (stereo not shown) [LN0000002683] | 5.96 | 134 | – | –
2 | COc1ccccc1-c1cc(-c2ccccc2O)nc(NCC2CCC(C(=O)O)CC2)n1 (stereo not shown) [LN0000006691] | – | 125 | – | pEC50 (human FXR alpha (NR1H4) [1]; read-out: EC50 at FXR (half-maximal effective concentration)): 6.80; relative efficacy compared to GW4064 as control compound (full length human FXR): about 110%
3 | COc1ccccc1-c1cc(-c2ccccc2O)nc(NC[C@H]2CC[C@H](C(=O)O)CC2)n1 [LN0000006691] | – | – | – | pEC50 (full length human FXR): 5.89
4 | O=C(O)C1CCC(CNc2nc(-c3cccs3)cc(-c3ccccc3O)n2)CC1 (stereo not shown) [LN0000006692] | 5.78 | 111 | – | –
5 | O=C(O)C1CCC(CNc2nc(-c3ccccc3O)cc(-c3ccccc3F)n2)CC1 (stereo not shown) [LN0000007265] | 6.28 | 91 | – | –
6 | O=C(O)C1CCC(CNc2nc(-c3ccccc3O)cc(-c3ccccc3F)n2)CC1 (stereo not shown) [formula (5)] | – | – | active as agonists | –
7 | COc1ccccc1-c1cc(-c2cc(C)ccc2O)nc(NC[C@H]2CC[C@H](C(=O)O)CC2)n1 [formula (6)] | – | – | active as agonists | –
8 | O=C(O)[C@H]1CC[C@H](CNc2nc(-c3cccs3)cc(-c3ccccc3O)n2)CC1 [formula (7)] | – | – | active as agonists | –
